# Measured values published in PubChem BioAssay AID1963965 (Molecular Pharmacology Branch, DTP, NCI, 2024).
# System: 996289-038-R-J1-PDC spheroid viability
# Test: Anticancer human tumor 996289-038-R-J1-PDC patient-derived colon adenocarcinoma cell line growth inhibition [PI3K]
# Settings: spheroids with HUVEC and MSC; for IC50: curve of first compound; for viability, T/C: stronger effect = lower value
# Procedure, shortened: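 We assembled tumor spheroids that included a stromal compartment of HUVEC and MSCs, then exposed them to targeted agents alone and together with PI3K pathway inhibitors. Concentration series descended by half-log from clinically achievable Cmax levels. Viability served as the endpoint.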
# 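Note: spheroids exposed to compounds for seven days before viability read.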
# 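Throughout, for viability, T/C: luminescence used as a proxy for viable cell amount; percent viability relative to DMSO vehicle control as 100%.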
smiles,measurement,setting,value
Cn1cnc2c(F)c(Nc3ccc(Br)cc3Cl)c(C(=O)NOCCO)cc21 + CC(Nc1ncnc2nc[nH]c12)c1cc2cccc(Cl)c2c(=O)n1-c1ccccc1,IC50,second compound 0.0316 µM,0.207 µM
same,IC50,second compound 0.1 µM,0.166 µM
same,IC50,second compound 0.316 µM,0.225 µM
same,IC50,second compound 1 µM,0.218 µM
same,IC50,second compound 3.16 µM,0.161 µM
same,IC50,second compound 10 µM,0.114 µM
same,"viability, T/C","second compound 0.0316 µM, first compound 0.00949 µM",102%
same,"viability, T/C","second compound 0.0316 µM, first compound 0.03 µM",77.2%
same,"viability, T/C","second compound 0.0316 µM, first compound 0.0949 µM",67.1%
same,"viability, T/C","second compound 0.0316 µM, first compound 0.3 µM",39.3%
same,"viability, T/C","second compound 0.0316 µM, first compound 0.949 µM",33.5%
same,"viability, T/C","second compound 0.0316 µM, first compound 3 µM",21.2%
same,"viability, T/C","second compound 0.1 µM, first compound 0.00949 µM",94.4%
same,"viability, T/C","second compound 0.1 µM, first compound 0.03 µM",77%
same,"viability, T/C","second compound 0.1 µM, first compound 0.0949 µM",54.9%
same,"viability, T/C","second compound 0.1 µM, first compound 0.3 µM",42.8%
same,"viability, T/C","second compound 0.1 µM, first compound 0.949 µM",33.5%
same,"viability, T/C","second compound 0.1 µM, first compound 3 µM",23.9%
same,"viability, T/C","second compound 0.316 µM, first compound 0.00949 µM",108%
same,"viability, T/C","second compound 0.316 µM, first compound 0.03 µM",79.7%
same,"viability, T/C","second compound 0.316 µM, first compound 0.0949 µM",62.8%
same,"viability, T/C","second compound 0.316 µM, first compound 0.3 µM",45.1%
same,"viability, T/C","second compound 0.316 µM, first compound 0.949 µM",36.4%
same,"viability, T/C","second compound 0.316 µM, first compound 3 µM",21.2%
same,"viability, T/C","second compound 1 µM, first compound 0.00949 µM",85.5%
same,"viability, T/C","second compound 1 µM, first compound 0.03 µM",69%
same,"viability, T/C","second compound 1 µM, first compound 0.0949 µM",63.6%
same,"viability, T/C","second compound 1 µM, first compound 0.3 µM",43.9%
same,"viability, T/C","second compound 1 µM, first compound 0.949 µM",33.6%
same,"viability, T/C","second compound 1 µM, first compound 3 µM",19.2%
same,"viability, T/C","second compound 3.16 µM, first compound 0.00949 µM",83.5%
same,"viability, T/C","second compound 3.16 µM, first compound 0.03 µM",73.7%
same,"viability, T/C","second compound 3.16 µM, first compound 0.0949 µM",58.9%
same,"viability, T/C","second compound 3.16 µM, first compound 0.3 µM",37.7%
same,"viability, T/C","second compound 3.16 µM, first compound 0.949 µM",31.1%
same,"viability, T/C","second compound 3.16 µM, first compound 3 µM",18.2%
same,"viability, T/C","second compound 10 µM, first compound 0.00949 µM",94.1%
same,"viability, T/C","second compound 10 µM, first compound 0.03 µM",68.3%
same,"viability, T/C","second compound 10 µM, first compound 0.0949 µM",53.9%
same,"viability, T/C","second compound 10 µM, first compound 0.3 µM",36.2%
same,"viability, T/C","second compound 10 µM, first compound 0.949 µM",27%
same,"viability, T/C","second compound 10 µM, first compound 3 µM",13.9%
C=CC(=O)N1CCN(c2nc(=O)n(-c3c(C)ccnc3C(C)C)c3nc(-c4c(O)cccc4F)c(F)cc23)C(C)C1 (centres undefined) + Cc1nc(NC(=O)N2CCCC2C(N)=O)sc1-c1ccnc(C(C)(C)C(F)(F)F)c1,IC50,second compound 0.0316 µM,> 10 µM
same,IC50,second compound 0.1 µM,> 10 µM
same,IC50,second compound 0.316 µM,> 10 µM
same,IC50,second compound 1 µM,> 10 µM
same,IC50,second compound 3.16 µM,> 10 µM
same,IC50,second compound 10 µM,0.0454 µM
same,"viability, T/C","second compound 0.0316 µM, first compound 0.0316 µM",91.4%
same,"viability, T/C","second compound 0.0316 µM, first compound 0.1 µM",107%
same,"viability, T/C","second compound 0.0316 µM, first compound 0.316 µM",111%
same,"viability, T/C","second compound 0.0316 µM, first compound 1 µM",116%
same,"viability, T/C","second compound 0.0316 µM, first compound 3.16 µM",115%
same,"viability, T/C","second compound 0.0316 µM, first compound 10 µM",114%
same,"viability, T/C","second compound 0.1 µM, first compound 0.0316 µM",87.5%
same,"viability, T/C","second compound 0.1 µM, first compound 0.1 µM",90.4%
same,"viability, T/C","second compound 0.1 µM, first compound 0.316 µM",90.5%
same,"viability, T/C","second compound 0.1 µM, first compound 1 µM",96.7%
same,"viability, T/C","second compound 0.1 µM, first compound 3.16 µM",122%
same,"viability, T/C","second compound 0.1 µM, first compound 10 µM",93.5%
same,"viability, T/C","second compound 0.316 µM, first compound 0.0316 µM",79.8%
same,"viability, T/C","second compound 0.316 µM, first compound 0.1 µM",95.2%
same,"viability, T/C","second compound 0.316 µM, first compound 0.316 µM",94.7%
same,"viability, T/C","second compound 0.316 µM, first compound 1 µM",83.6%
same,"viability, T/C","second compound 0.316 µM, first compound 3.16 µM",97.5%
same,"viability, T/C","second compound 0.316 µM, first compound 10 µM",89.9%
same,"viability, T/C","second compound 1 µM, first compound 0.0316 µM",88.6%
same,"viability, T/C","second compound 1 µM, first compound 0.1 µM",85.8%
same,"viability, T/C","second compound 1 µM, first compound 0.316 µM",75.6%
same,"viability, T/C","second compound 1 µM, first compound 1 µM",87.5%
same,"viability, T/C","second compound 1 µM, first compound 3.16 µM",77.6%
same,"viability, T/C","second compound 1 µM, first compound 10 µM",80.1%
same,"viability, T/C","second compound 3.16 µM, first compound 0.0316 µM",59.5%
same,"viability, T/C","second compound 3.16 µM, first compound 0.1 µM",71.7%
same,"viability, T/C","second compound 3.16 µM, first compound 0.316 µM",74.7%
same,"viability, T/C","second compound 3.16 µM, first compound 1 µM",61.6%
same,"viability, T/C","second compound 3.16 µM, first compound 3.16 µM",64.4%
same,"viability, T/C","second compound 3.16 µM, first compound 10 µM",59.5%
same,"viability, T/C","second compound 10 µM, first compound 0.0316 µM",50.5%
same,"viability, T/C","second compound 10 µM, first compound 0.1 µM",50.7%
same,"viability, T/C","second compound 10 µM, first compound 0.316 µM",43.2%
same,"viability, T/C","second compound 10 µM, first compound 1 µM",40.6%
same,"viability, T/C","second compound 10 µM, first compound 3.16 µM",48.8%
same,"viability, T/C","second compound 10 µM, first compound 10 µM",47.4%
